Test results reported in PubChem BioAssay AID1963440 (Molecular Pharmacology Branch, DTP, NCI, 2024).

System: NCI-H1417 complex spheroids, growth % test/control
Assay: Anticancer human tumor NCI-H1417 cell line growth inhibition [Asc];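 further: spheroids exposed to compounds for 7 days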;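 on viability, T/C: 100% = DMSO vehicle control wells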
Settings: for IC50: curve of first compound; for viability, T/C: stronger effect = lower value
Method in brief: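 Tumor cells were grown as complex spheroids with human endothelial cells (HUVEC) and human mesenchymal stem cells as stroma. Agents were tested alone and in combination, in half-log steps down from the clinical Cmax, or from 10 microM where Cmax was unknown.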

[1] = second compound 0.03 µM, first compound 0.0316 µM
[2] = second compound 0.03 µM, first compound 0.1 µM
[3] = second compound 0.0949 µM, first compound 0.0316 µM
[4] = second compound 0.0949 µM, first compound 0.1 µM
[5] = second compound 0.3 µM, first compound 0.0316 µM
[6] = second compound 0.3 µM, first compound 0.1 µM
[7] = second compound 0.949 µM, first compound 0.0316 µM
[8] = second compound 0.949 µM, first compound 0.1 µM
[9] = second compound 3 µM, first compound 0.0316 µM
[10] = second compound 3 µM, first compound 0.1 µM

Structure (SMILES): Cc1nc(N2CCC3(CC2)COC(C)C3N)c(CO)nc1Sc1ccnc(N)c1Cl (stereo not given) + Cc1c(S(C)(=O)=O)c(-c2cc(F)cc(N3CCN(c4ccc(NS(=O)(=O)c5ccc(NC(CCN6CCC(C(=O)OCCCP(=O)(O)O)CC6)CSc6ccccc6)c(S(=O)(=O)C(F)(F)F)c5)cc4)CC3)c2)c(-c2ccc(Cl)cc2)n1C(C)C
- IC50 (second compound 0.1 µM): > 3000 nM
- IC50 (second compound 0.316 µM): < 9.49 nM
- IC50 (second compound 1 µM): < 9.49 nM
- IC50 (second compound 3.16 µM): < 9.49 nM
- IC50 (second compound 10 µM): < 9.49 nM
- viability, T/C (second compound 0.1 µM, first compound 0.00949 µM): 81.4%
- viability, T/C (second compound 0.1 µM, first compound 0.03 µM): 82%
- viability, T/C (second compound 0.1 µM, first compound 0.0949 µM): 71.4%
- viability, T/C (second compound 0.1 µM, first compound 0.3 µM): 64.8%
- viability, T/C (second compound 0.1 µM, first compound 0.949 µM): 64.4%
- viability, T/C (second compound 0.1 µM, first compound 3 µM): 52.6%
- viability, T/C (second compound 0.316 µM, first compound 0.00949 µM): 46.9%
- viability, T/C (second compound 0.316 µM, first compound 0.03 µM): 46.3%
- viability, T/C (second compound 0.316 µM, first compound 0.0949 µM): 32.9%
- viability, T/C (second compound 0.316 µM, first compound 0.3 µM): 23.9%
- viability, T/C (second compound 0.316 µM, first compound 0.949 µM): 13.7%
- viability, T/C (second compound 0.316 µM, first compound 3 µM): 12.2%
- viability, T/C (second compound 1 µM, first compound 0.00949 µM): 12.4%
- viability, T/C (second compound 1 µM, first compound 0.03 µM): 9.91%
- viability, T/C (second compound 1 µM, first compound 0.0949 µM): 6.5%
- viability, T/C (second compound 1 µM, first compound 0.3 µM): 3.75%
- viability, T/C (second compound 1 µM, first compound 0.949 µM): 1.89%
- viability, T/C (second compound 1 µM, first compound 3 µM): 0.84%
- viability, T/C (second compound 3.16 µM, first compound 0.00949 µM): 2.34%
- viability, T/C (second compound 3.16 µM, first compound 0.03 µM): 2.47%
- viability, T/C (second compound 3.16 µM, first compound 0.0949 µM): 1.68%
- viability, T/C (second compound 3.16 µM, first compound 0.3 µM): 1.09%
- viability, T/C (second compound 3.16 µM, first compound 0.949 µM): 0.67%
- viability, T/C (second compound 3.16 µM, first compound 3 µM): 0.5%
- viability, T/C (second compound 10 µM, first compound 0.00949 µM): 2.47%
- viability, T/C (second compound 10 µM, first compound 0.03 µM): 2.41%
- viability, T/C (second compound 10 µM, first compound 0.0949 µM): 1.78%
- viability, T/C (second compound 10 µM, first compound 0.3 µM): 1.37%
- viability, T/C (second compound 10 µM, first compound 0.949 µM): 1.05%
- viability, T/C (second compound 10 µM, first compound 3 µM): 1.2%

Structure (SMILES): C#Cc1c(F)ccc2cc(O)cc(-c3ncc4c(N5CC6CCC(C5)N6)nc(OCC56CCCN5CC(F)C6)nc4c3F)c12 (stereo not given) + CCN1C(C(=O)NC23CCC(C(=O)O)(CC2)CC3)C(c2cccc(Cl)c2F)C2(C(=O)Nc3cc(Cl)ccc32)C12CCCCC2
- IC50 (second compound 0.03 µM): > 10000 nM
- IC50 (second compound 0.0949 µM): > 10000 nM
- IC50 (second compound 0.3 µM): > 10000 nM
- IC50 (second compound 0.949 µM): > 10000 nM
- IC50 (second compound 3 µM): > 10000 nM
- viability, T/C [1]: 101%
- viability, T/C [2]: 106%
- viability, T/C (second compound 0.03 µM, first compound 0.316 µM): 106%
- viability, T/C (second compound 0.03 µM, first compound 1 µM): 102%
- viability, T/C (second compound 0.03 µM, first compound 3.16 µM): 103%
- viability, T/C (second compound 0.03 µM, first compound 10 µM): 111%
- viability, T/C [3]: 107%
- viability, T/C [4]: 103%
- viability, T/C (second compound 0.0949 µM, first compound 0.316 µM): 93.9%
- viability, T/C (second compound 0.0949 µM, first compound 1 µM): 95.2%
- viability, T/C (second compound 0.0949 µM, first compound 3.16 µM): 108%
- viability, T/C (second compound 0.0949 µM, first compound 10 µM): 109%
- viability, T/C [5]: 98.2%
- viability, T/C [6]: 94.7%
- viability, T/C (second compound 0.3 µM, first compound 0.316 µM): 94.8%
- viability, T/C (second compound 0.3 µM, first compound 1 µM): 105%
- viability, T/C (second compound 0.3 µM, first compound 3.16 µM): 108%
- viability, T/C (second compound 0.3 µM, first compound 10 µM): 108%
- viability, T/C [7]: 88.2%
- viability, T/C [8]: 96.9%
- viability, T/C (second compound 0.949 µM, first compound 0.316 µM): 97.3%
- viability, T/C (second compound 0.949 µM, first compound 1 µM): 88.3%
- viability, T/C (second compound 0.949 µM, first compound 3.16 µM): 84%
- viability, T/C (second compound 0.949 µM, first compound 10 µM): 77.3%
- viability, T/C [9]: 91%
- viability, T/C [10]: 88.1%
- viability, T/C (second compound 3 µM, first compound 0.316 µM): 105%
- viability, T/C (second compound 3 µM, first compound 1 µM): 88.7%
- viability, T/C (second compound 3 µM, first compound 3.16 µM): 89.5%
- viability, T/C (second compound 3 µM, first compound 10 µM): 95.7%

Structure (SMILES): Cn1ncnc1[C@H]1c2n[nH]c(=O)c3cc(F)cc(c23)N[C@@H]1c1ccc(F)cc1 + CCN1C(C(=O)NC23CCC(C(=O)O)(CC2)CC3)C(c2cccc(Cl)c2F)C2(C(=O)Nc3cc(Cl)ccc32)C12CCCCC2
- IC50 (second compound 0.03 µM): 36.5 nM
- IC50 (second compound 0.0949 µM): 13.9 nM
- IC50 (second compound 0.3 µM): 9.66 nM
- IC50 (second compound 0.949 µM): 12.9 nM
- IC50 (second compound 3 µM): 10 nM
- viability, T/C (second compound 0.03 µM, first compound 0.000316 µM): 99.3%
- viability, T/C (second compound 0.03 µM, first compound 0.001 µM): 94%
- viability, T/C (second compound 0.03 µM, first compound 0.00316 µM): 87.5%
- viability, T/C (second compound 0.03 µM, first compound 0.01 µM): 66%
- viability, T/C [1]: 52.6%
- viability, T/C [2]: 42%
- viability, T/C (second compound 0.0949 µM, first compound 0.000316 µM): 91.8%
- viability, T/C (second compound 0.0949 µM, first compound 0.001 µM): 91.7%
- viability, T/C (second compound 0.0949 µM, first compound 0.00316 µM): 90%
- viability, T/C (second compound 0.0949 µM, first compound 0.01 µM): 52.3%
- viability, T/C [3]: 49.9%
- viability, T/C [4]: 38.1%
- viability, T/C (second compound 0.3 µM, first compound 0.000316 µM): 94.5%
- viability, T/C (second compound 0.3 µM, first compound 0.001 µM): 90.4%
- viability, T/C (second compound 0.3 µM, first compound 0.00316 µM): 79.2%
- viability, T/C (second compound 0.3 µM, first compound 0.01 µM): 48.5%
- viability, T/C [5]: 43.6%
- viability, T/C [6]: 39.9%
- viability, T/C (second compound 0.949 µM, first compound 0.000316 µM): 83.6%
- viability, T/C (second compound 0.949 µM, first compound 0.001 µM): 87.8%
- viability, T/C (second compound 0.949 µM, first compound 0.00316 µM): 75.8%
- viability, T/C (second compound 0.949 µM, first compound 0.01 µM): 55.1%
- viability, T/C [7]: 34.4%
- viability, T/C [8]: 34.8%
- viability, T/C (second compound 3 µM, first compound 0.000316 µM): 80%
- viability, T/C (second compound 3 µM, first compound 0.001 µM): 80.8%
- viability, T/C (second compound 3 µM, first compound 0.00316 µM): 76.3%
- viability, T/C (second compound 3 µM, first compound 0.01 µM): 49.6%
- viability, T/C [9]: 39.6%
- viability, T/C [10]: 34.5%
